Experimental data reported in patent publication EP0008888A1, “Beta-lactam antibacterial compounds, their preparation and pharmaceutical compositions containing them” (BEECHAM GROUP PLC, priority 1978, dated 1980).
≈ marks a conversion by molar mass, not a printed value. Read-outs that look alike come from different tables or passages of the source.

Assays:
Assay in all cases: MIC in a standard test
Assay type in all cases: cell-based
Proteus mirabilis C977 = tested on: Proteus mirabilis C977
Citrobacter freundii E8 = tested on: Citrobacter freundii E8
Enterobacter cloacoae N1 = tested on: Enterobacter cloacoae N1
Proteus morganii I580 = conditions: Morganella morganii
[1] = tested on: Streptococcus pyogenes CN10
Pseudomonas aeruginosa A = tested on: Pseudomonas aeruginosa A
[2] = tested on: Streptococcus pneumoniae CN33
Proteus vulgaris WO91 = tested on: Proteus vulgaris WO91
Klebsiella aerogenes A = tested on: Klebsiella aerogenes A
[3] = tested on: Staphylococcus aureus Oxford
Bacillus subtilis A = tested on: Bacillus subtilis A
Shigella sonnei MB 11967 = conditions: MB11967
Streptococcus faecalis I = conditions: Enterococcus faecalis
Escherichia coli 0111 = tested on: Escherichia coli 0111
[4] = tested on: Staphylococcus aureus Russell
Serratia marcescens US20 = tested on: Serratia marcescens US20
Proteus rettgeri WM16 = conditions: Providencia rettgeri
Escherichia coli JT39 = tested on: Escherichia coli JT39
[5] = tested on: Salmonella typhimurium CT10; conditions: Salmonella enterica
[6] = tested on: Staphylococcus aureus 1517
[7] = standard test, Escherichia coli JT39, read-out: MIC

| Compound | MIC (Proteus mirabilis C977) | MIC (Citrobacter freundii E8) | MIC (Enterobacter cloacoae N1) | MIC (Proteus morganii I580) | MIC [1] | MIC (Pseudomonas aeruginosa A) | MIC [2] | MIC (Proteus vulgaris WO91) | MIC (Klebsiella aerogenes A) | MIC [3] | MIC (Bacillus subtilis A) | MIC (Shigella sonnei MB 11967) | MIC (Streptococcus faecalis I) | MIC (Escherichia coli 0111) | MIC [4] | MIC (Serratia marcescens US20) | MIC (Proteus rettgeri WM16) | MIC (Escherichia coli JT39; [7]) | MIC [5] | MIC [6] | further results |
| --- | --- | --- | --- | --- | --- | --- | --- | --- | --- | --- | --- | --- | --- | --- | --- | --- | --- | --- | --- | --- | --- |
| COCCSC1=C(C(=O)O)N2C(=O)C[C@H]2C1 [Example 32, Sodium 3-(2-methxyethylthio)-7-oxo-1-azabicyclo[3.2.0] hept-2-ene-2-carboxylate] | 6.2 µg/mL | 3.1 µg/mL | 6.2 µg/mL | 50 µg/mL | 1.6 µg/mL | > 100 µg/mL | ≤ 0.2 µg/mL | 50 µg/mL | 1.6 µg/mL | 6.2 µg/mL | 1.6 µg/mL | 3.1 µg/mL | 50 µg/mL | 3.1 µg/mL | 25 µg/mL | 12.5 µg/mL | 50 µg/mL | 6.2 µg/mL | 3.1 µg/mL | > 50 µg/mL | – |
| CCSC1=C(C(=O)[O-])N2C(=O)CC2C1.[Na+] (stereo not shown) [Example 7, Sodium 3-ethylthio-7-oxo-1-azabicyclo(3,2,0)hept-2-ene-2-carboxylate] | 10 µg/mL | 2.5 µg/mL | 2.5 µg/mL | 10 µg/mL | 1 µg/mL | > 100 µg/mL | 1 µg/mL | 50 µg/mL | 1 µg/mL | 5 µg/mL | 1 µg/mL | 5.2 µg/mL | 100 µg/mL | 2.5 µg/mL | 10 µg/mL | 10 µg/mL | 50 µg/mL | – | 2.5 µg/mL | > 100 µg/mL | MIC (Escherichia coli JT39; Escherichia coli, JT39): 50 µg/mL |
| CSC1=C(C(=O)[O-])N2C(=O)CC2C1.[Na+] (stereo not shown) [Example 42, Sodium 3-methylthio-7-oxo-1-azabicyclo[3.2.0]hept-2-ene-2-carboxylate] | 25 µg/mL | 1.6 µg/mL | 3.1 µg/mL | 25 µg/mL | 0.8 µg/mL | > 50 µg/mL | ≤ 0.2 µg/mL | 25 µg/mL | 3.1 µg/mL | 6.2 µg/mL | 1.6 µg/mL | 3.1 µg/mL | > 50 µg/mL | 3.1 µg/mL | 12.5 µg/mL | 3.1 µg/mL | 25 µg/mL | – | 3.1 µg/mL | > 50 µg/mL | MIC (Escherichia coli JT39; Escherichia coli, JT39): 6.2 µg/mL |
| COC(=O)CCSC1=C(C(=O)O)N2C(=O)C[C@H]2C1 [Example 23, Potassium 3-(2-methoxycarbonylethvlthio)-7-oxo-l-azabicyclo[3.2.0]hept-2-ene-2-carboxylate] | 12.5 µg/mL | 1.6 µg/mL | – | 25 µg/mL | 0.8 µg/mL | > 50 µg/mL | ≤ 0.2 µg/mL | 25 µg/mL | 1.6 µg/mL | 12.5 µg/mL | 3.1 µg/mL | – | > 50 µg/mL | 1.6 µg/mL | 50 µg/mL | 25 µg/mL | 25 µg/mL | 6.2 µg/mL | 3.1 µg/mL | > 50 µg/mL | – |
| CCSC1=C(C(=O)O)N2C(=O)[C@@H](C)[C@H]2C1 (relative stereo) [Example 79, Sodium 3 - ethylthio-6β - methyl - 7 - oxo - 1 - azabicyclo [3.2 .O] hept - 2 - ene - 2 - carboxylate] | 6.2 µg/mL | 6.2 µg/mL | 6.2 µg/mL | 25 µg/mL | 3.1 µg/mL | > 50 µg/mL | 0.8 µg/mL | 25 µg/mL | 3.1 µg/mL | 3.1 µg/mL | 6.2 µg/mL | 3.1 µg/mL | > 50 µg/mL | 6.2 µg/mL | 6.2 µg/mL | 12.5 µg/mL | 25 µg/mL | 6.2 µg/mL | 3.1 µg/mL | > 50 µg/mL | – |
| CNC(=O)OCCSC1=C(C(=O)[O-])N2C(=O)CC2C1.[Na+] (stereo not shown) [Example 37, Sodium 3-(2-methylcarbamoyloxyethylthio)-7-oxo-1-azabicyclo [3.2.0]hept-2-ene-2-carboxylate] | 1.6 µg/mL | 1.6 µg/mL | 1.6 µg/mL | 12.5 µg/mL | ≤ 0.2 µg/mL | > 50 µg/mL | ≤ 0.2 µg/mL | 12.5 µg/mL | 0.4 µg/mL | 1.6 µg/mL | 0.8 µg/mL | 0.8 µg/mL | 25 µg/mL | 0.8 µg/mL | 12.5 µg/mL | 6.2 µg/mL | 12.5 µg/mL | – | 0.8 µg/mL | > 50 µg/mL | MIC (Escherichia coli JT39; Escherichia coli, JT39): 6.2 µg/mL |
| CCSC1=C(C(=O)OC2OC(=O)c3ccccc32)N2C(=O)[C@@H](CC)[C@H]2C1 (stereo partly drawn) [Example 75, Phthalidyl 6β-ethyl - 3-ethylthio - 7 - oxo - 1 - azabicyclo [3.2.0] hept - 2 - ene - 2-carboxylate] | 25 µg/mL (≈ 66.9 µM) | 25 µg/mL (≈ 66.9 µM) | 12.5 µg/mL (≈ 33.5 µM) | 25 µg/mL (≈ 66.9 µM) | 5 µg/mL (≈ 13.4 µM) | > 50 µg/mL | 1.2 µg/mL (≈ 3.21 µM) | 50 µg/mL (≈ 134 µM) | 25 µg/mL (≈ 66.9 µM) | 5 µg/mL (≈ 13.4 µM) | 5 µg/mL (≈ 13.4 µM) | 12.5 µg/mL (≈ 33.5 µM) | > 50 µg/mL | 25 µg/mL (≈ 66.9 µM) | 12.5 µg/mL (≈ 33.5 µM) | 50 µg/mL (≈ 134 µM) | 25 µg/mL (≈ 66.9 µM) | 50 µg/mL (≈ 134 µM) | 12.5 µg/mL (≈ 33.5 µM) | > 50 µg/mL | – |
| CCSC1=C(C(=O)OCc2ccc([N+](=O)[O-])cc2)N2C(=O)[C@@H](CCN=[N+]=[N-])[C@H]2C1 (relative stereo) [Example 82, p - Nitrobenzyl - 6β-(2 - azidoethyl) - 3 - ethylthio - 7 - oxo - 1 - azabicyclo [3.2.O] hept-2 - ene - 2 - carboxylate] | 12.5 µg/mL (≈ 29.9 µM) | 3.1 µg/mL (≈ 7.43 µM) | 12.5 µg/mL (≈ 29.9 µM) | 12.5 µg/mL (≈ 29.9 µM) | – | > 50 µg/mL | – | 12.5 µg/mL (≈ 29.9 µM) | 1.6 µg/mL (≈ 3.83 µM) | 0.8 µg/mL (≈ 1.92 µM) | 1.6 µg/mL (≈ 3.83 µM) | 3.1 µg/mL (≈ 7.43 µM) | 50 µg/mL (≈ 120 µM) | 1.6 µg/mL (≈ 3.83 µM) | 1.6 µg/mL (≈ 3.83 µM) | 12.5 µg/mL (≈ 29.9 µM) | 6.2 µg/mL (≈ 14.9 µM) | 12.5 µg/mL (≈ 29.9 µM) | 3.1 µg/mL (≈ 7.43 µM) | 50 µg/mL (≈ 120 µM) | – |
| CCSC1=C(C(=O)OC2OC(=O)c3ccccc32)N2C(=O)C[C@H]2C1 (stereo partly shown) [Example 9, Phthalidyl 3-ethylthio-7-oxo-1-azabicyclo[3.2.0]hept-2-ene-2-carboxylate] | 25 µg/mL (≈ 72.4 µM) | 12.5 µg/mL (≈ 36.2 µM) | – | 25 µg/mL (≈ 72.4 µM) | 12.5 µg/mL (≈ 36.2 µM) | > 50 µg/mL | – | > 50 µg/mL | 12.5 µg/mL (≈ 36.2 µM) | > 50 µg/mL | 25 µg/mL (≈ 72.4 µM) | 12.5 µg/mL (≈ 36.2 µM) | > 50 µg/mL | 12.5 µg/mL (≈ 36.2 µM) | > 50 µg/mL | 50 µg/mL (≈ 145 µM) | > 50 µg/mL | > 50 µg/mL | 12.5 µg/mL (≈ 36.2 µM) | > 50 µg/mL | – |
| NCCSC1=C(C(=O)O)N2C(=O)CC2C1 (stereo not shown) [Example 15, 3-Aminoethylthio-7-oxo-1-azabicyclo[3.2.0]hept-2-ene-2-carboxylic acid] | 25 µg/mL (≈ 110 µM) | 3.1 µg/mL (≈ 13.6 µM) | 3.1 µg/mL (≈ 13.6 µM) | 25 µg/mL (≈ 110 µM) | 0.4 µg/mL (≈ 1.75 µM) | 6.2 µg/mL (≈ 27.2 µM) | 0.2 µg/mL (≈ 0.876 µM) | 25 µg/mL (≈ 110 µM) | 1.6 µg/mL (≈ 7.01 µM) | 0.8 µg/mL (≈ 3.5 µM) | 0.8 µg/mL (≈ 3.5 µM) | 3.1 µg/mL (≈ 13.6 µM) | 25 µg/mL (≈ 110 µM) | 3.1 µg/mL (≈ 13.6 µM) | > 3.1 µg/mL | 6.2 µg/mL (≈ 27.2 µM) | 25 µg/mL (≈ 110 µM) | 1.6 µg/mL (≈ 7.01 µM) | 3.1 µg/mL (≈ 13.6 µM) | – | – |
